According to ChEMBL document CHEMBL5050861 (2021):
In brackets after ≈: the same amount, converted by molar mass.

Columns and labels:
[1] = Kinetic aqueous solubility of the compound; format: physicochemical; settings: buffer; read-out: Kinetic_solubility
[2] = Stability of compound in rat microsomes assessed as half-life; format: ADME, Microsome
[3] = Inhibition of human GALK1 K252A/E253A double mutant; settings: read-out: IC50
Homo sapiens = species: Homo sapiens; experiment: Inhibition of human GALK1 K252A/E253A double mutant relative to control; design: concentration or dose not given beside the values; settings: concentration not given here
[4] = Inhibition of recombinant mouse GALK1 using ATP as substrate incubated for 1 hr and measured by Kinase-Glo assay
[5] = Permeability of compound by PAMPA assay; format: ADME; settings: for Papp: read-out: permeability

solubility kinetic [1] [µg/mL]	half-life [2] [min]	IC50 [3] [µM]	inhibition (Homo sapiens) [%]	IC50 ([4]; read-out: IC50) [µM]	permeability [5]	Papp [5] [×10⁻⁶ cm/s]	IC50 [4]	Structure (SMILES)
< 1	> 30	3.9	95	10.7				CC1=C(C(=O)Nc2nnc(C)s2)C(c2ccccc2Cl)N=C(Nc2nc3ccccc3o2)N1 (stereo not drawn)
< 1	6.43	1.2	84	12.2				CC1=C(C(=O)NCc2cncs2)C(c2ccccc2Cl)N=C(Nc2nc3ccccc3o2)N1 (stereo not drawn)
4.47 (≈ 8.85 µM)	14.1	0.047		2.17	25.28 10^-6 cm/s			CC1=C(C(=O)NCc2cnn(C)c2)C(c2ccc(C)cc2Cl)N=C(Nc2nc3cccc(N)c3o2)N1 (stereo not drawn)
28.6 (≈ 42.9 µM)	> 30			3.85		< 1		CC1=C(C(=O)Nc2cc(C(=O)O)ccn2)C(c2ccc(-c3ccc(C(F)(F)F)nc3)cc2Cl)N=C(Nc2nc3ccc(F)cc3o2)N1 (stereo not drawn)
< 1	> 30			19.3		< 1		CC1=C(C(=O)Nc2nncs2)C2(CCCC2)N=C(Nc2nc3ccccc3o2)N1
< 1	> 30			21.7		< 4.4		COc1ccc2nc(NC3=NC(c4ccccc4Cl)C(C(=O)Nc4nnc(-c5cccnc5)s4)=C(C)N3)oc2c1 (stereo not drawn)
< 1	> 30			10.9		< 1.5		CC1=C(C(=O)Nc2nnc(-c3cccnc3)s2)C(c2ccccc2Cl)N=C(Nc2nc3cc(C)ccc3o2)N1 (stereo not drawn)
> 74	> 30	0.97	88	6.85				CC1=C(C(=O)Nc2cc(C(=O)O)ccn2)C(c2ccccc2Cl)N=C(Nc2nc3ccccc3o2)N1 (racemic)
< 1	> 30			19.3		< 3.4		CC1=C(C(=O)Nc2nnc(-c3cccnc3)s2)C(c2ccccc2Cl)N=C(Nc2nc3cc(Cl)ccc3o2)N1 (stereo not drawn)
2.4 (≈ 4 µM)	> 30			3.85		< 1.7		CC1=C(C(=O)Nc2cc(C(=O)O)ccn2)C(c2ccc(Br)cc2Cl)N=C(Nc2nc3ccc(F)cc3o2)N1 (stereo not drawn)
1.23 (≈ 2.37 µM)	> 30			12.2		< 5		O=C1CC(C(=O)Nc2nncs2)CC2=C1C(c1ccccc1Cl)N=C(Nc1nc3ccccc3o1)N2 (stereo not drawn)
> 53	> 30			1.41		< 1		CC1=C(C(=O)Nc2cc(C(=O)O)ccn2)[C@H](c2ccc(C)cc2Cl)N=C(Nc2nc3cccc(N)c3o2)N1
55.6 (≈ 107 µM)	> 30			1.72		< 1		CC1=C(C(=O)Nc2cc(C(=O)O)ccn2)[C@H](c2ccccc2Cl)N=C(Nc2nc3ccc(F)cc3o2)N1
> 51	> 30					< 1	Not Active	CC1=C(C(=O)Nc2cc(C(=O)O)ccn2)C(c2ccc(C)cc2Cl)N=C(Nc2nc3cccnc3o2)N1 (stereo not drawn)
< 1	> 30	1.4	100	6.11				CC1=C(C(=O)Nc2ccc(C(=O)O)cc2)C(c2ccccc2Cl)N=C(Nc2nc3ccccc3o2)N1 (stereo not drawn)
> 85	> 30			19.3		< 1		CCOC(=O)N1C(Nc2nc3ccccc3o2)=NC(c2ccccc2Cl)C(C(=O)Nc2cc(C(=O)O)ccn2)=C1C (stereo not drawn)
< 1	3.16			10.7		< 2.7		CCOC(=O)c1nnc(NC(=O)C2=C(C)NC(Nc3nc4ccccc4o3)=NC2c2ccccc2Cl)s1 (stereo not drawn)
1.8 (≈ 3.81 µM)	6.56			19.3	1424 10^-6 cm/s			CC1=C(C(=O)NCc2ccccn2)C(c2ccccc2Cl)N=C(Nc2nc3ccccc3o2)N1 (stereo not drawn)
60 (≈ 119 µM)	> 30			6.85		< 1		CC1=C(C(=O)Nc2cccc(C(=O)O)n2)C(c2ccccc2Cl)N=C(Nc2nc3ccccc3o2)N1 (stereo not drawn)
29.9 (≈ 54.9 µM)	> 30			7.69		< 1		CC1=C(C(=O)Nc2cc(-c3nn[nH]n3)ccn2)C(c2ccccc2Cl)N=C(Nc2nc3ccc(F)cc3o2)N1 (stereo not drawn)
> 81	> 30			34.4		< 1		COc1ccc([C@H]2N=C(Nc3nc4cccc(N)c4o3)NC(C)=C2C(=O)Nc2cc(C(=O)O)ccn2)c(Cl)c1
< 1	> 30			15.3		< 14.9		CC1=C(C(=O)Nc2ccc(Br)cc2)C(c2ccccc2Cl)N=C(Nc2nc3ccccc3o2)N1 (stereo not drawn)
< 1	> 30			6.85		< 6.3		CC1=C(C(=O)Nc2ccc(C(N)=O)cc2)C(c2ccccc2Cl)N=C(Nc2nc3ccccc3o2)N1 (stereo not drawn)
> 87	> 30			0.97		< 1		CC1=C(C(=O)Nc2cc(C(=O)O)ccn2)C(c2ccc(-n3ccnc3)cc2Cl)N=C(Nc2nc3ccc(F)cc3o2)N1 (stereo not drawn)

solubility kinetic [1] [µg/mL]	half-life [2] [min]	IC50 [3] [µM]	inhibition (Homo sapiens) [%]	IC50 ([4]; read-out: IC50) [µM]	permeability [5]	Papp [5] [×10⁻⁶ cm/s]	IC50 [4]	Structure (SMILES)
> 51	> 30			6.85		< 1		CC1=C(C(=O)Nc2cc(C(=O)O)ccn2)C(c2ccc(C)cc2Cl)N=C(Nc2nc3cnccc3o2)N1 (stereo not drawn)
< 1	16.4			12.2		< 11.8		CC1=C(C(=O)Nc2ccc(-n3cccn3)cc2)C(c2ccccc2Cl)N=C(Nc2nc3ccccc3o2)N1 (stereo not drawn)
> 52	> 30			4.32		< 1.8		CC1=C(C(=O)Nc2cc(C(=O)O)ccn2)C(c2ccc(C)cc2Cl)N=C(Nc2nc3c(o2)CCCC3)N1 (stereo not drawn)
47.5 (≈ 90.3 µM)	> 30			34.4		5		CC1=C(C(=O)Nc2cccc(-c3nnn[nH]3)c2)C(c2ccccc2Cl)N=C(Nc2nc3ccccc3o2)N1 (stereo not drawn)
17.3 (≈ 33.2 µM)	> 30			13.7		< 1		CC1=C(C(=O)Nc2cc(C(=O)O)ccn2)[C@@H](c2ccccc2Cl)N=C(Nc2nc3ccc(F)cc3o2)N1
> 76	> 30			34.4		< 1.3		CC1=C(C(=O)Nc2cc(C(=O)O)ccn2)[C@@H](c2ccccc2Cl)N=C(Nc2nc3cccc(N)c3o2)N1
6.4 (≈ 12.4 µM)	> 30			19.3	1044 10^-6 cm/s			CC1=C(C(=O)Nc2nncs2)C(c2nn(C)cc2Br)N=C(Nc2nc3ccccc3o2)N1 (stereo not drawn)
< 1	> 30					< 10.3	Not Active	CC1=C(C(=O)Nc2nnc(-c3cccnc3)s2)C(c2ccccc2Cl)N=C(Nc2nc3ccc(Cl)cc3o2)N1 (stereo not drawn)
< 1	1.58			19.3	1248.8 10^-6 cm/s			CC1=C(C(=O)NCc2cccnc2)C(c2ccccc2Cl)N=C(Nc2nc3ccccc3o2)N1 (stereo not drawn)
15.3 (≈ 33.9 µM)	2.1			24.3	1046.7 10^-6 cm/s			CC1=C(C(=O)N2CCOCC2)C(c2ccccc2Cl)N=C(Nc2nc3ccccc3o2)N1 (stereo not drawn)
< 1	> 30			6.11		< 14.4		CC1=C(C(=O)Nc2nncs2)C(c2ccc(C)cc2Cl)N=C(Nc2nc3ccccc3o2)N1 (stereo not drawn)
< 1	5.09			15.3	1362.3 10^-6 cm/s			CC1=C(C(=O)NCc2ccccc2CO)C(c2ccccc2Cl)N=C(Nc2nc3ccccc3o2)N1 (stereo not drawn)
< 1	10.3			13.7		< 17.4		COC(=O)Cc1cccc(NC(=O)C2=C(C)NC(Nc3nc4ccccc4o3)=NC2c2ccccc2Cl)c1 (stereo not drawn)
< 1	> 30			3.43		< 7.3		CC1=C(C(=O)Nc2ccc([N+](=O)[O-])cc2)C(c2ccccc2Cl)N=C(Nc2nc3ccccc3o2)N1 (stereo not drawn)
> 74	> 30			3.06		< 1		CC1=C(C(=O)Nc2ccnc(C(=O)O)c2)C(c2ccccc2Cl)N=C(Nc2nc3ccccc3o2)N1 (stereo not drawn)
< 1	> 30			13.7		< 7.8		CC1=C(C(=O)Nc2ccc(C#N)cn2)C(c2ccccc2Cl)N=C(Nc2nc3ccc(F)cc3o2)N1 (stereo not drawn)
73.9 (≈ 122 µM)	> 30			7.69		< 1		CC1=C(C(=O)Nc2cc(C(=O)O)ccn2)C(c2ccccc2Cl)N=C(Nc2nc3ccccc3o2)N1C(=O)c1ccccc1 (stereo not drawn)
23.9 (≈ 47.3 µM)	30			7.69		< 4.7		O=C1CC(C(=O)N2CCNCC2)CC2=C1C(c1ccccc1Cl)N=C(Nc1nc3ccccc3o1)N2 (stereo not drawn)
> 51	> 30			19.3		< 1		CC1=C(C(=O)Nc2cc(C(=O)O)ccn2)C(c2ccc(C)cc2Cl)N=C(Nc2nc3ncccc3o2)N1 (stereo not drawn)
< 1	> 30			38.5		< 9.9		CC1=C(C(=O)Nc2nnc(-c3cccnc3)s2)C(c2ccccc2Cl)N=C(Nc2nc3ccc(F)cc3o2)N1 (stereo not drawn)
26.3 (≈ 47.6 µM)	> 30			21.7		< 1		CC1=C(C(=O)NCc2cnn(C)c2)C(c2ccc(C)cc2Cl)N=C(Nc2nc3ccc(F)c(C(=O)O)c3o2)N1 (stereo not drawn)
11.3 (≈ 20 µM)	> 30			3.85		< 1		CCOc1ccc(C2N=C(Nc3nc4ccc(F)cc4o3)NC(C)=C2C(=O)Nc2cc(C(=O)O)ccn2)c(Cl)c1 (stereo not drawn)
19.4 (≈ 32.9 µM)	> 30			10.9		< 1		CC1=C(C(=O)Nc2cc(C(=O)O)ccn2)C(c2ccc(C(F)(F)F)cc2Cl)N=C(Nc2nc3ccc(F)cc3o2)N1 (stereo not drawn)
